Data taken from US20190151289A1, “Identification of Small Molecule Inhibitors of Jumonji AT-Rich Interactive Domain 1A (JARID1A) Histone Demethylase” (YALE UNIVERSITY, priority 2016, published 2019).
Where two headings read alike, the source gives them in different places.

Key:
[1] = target: T1, full-length FLAG-KDM5A (Homo sapiens, UniProt P29375); experiment: AlphaScreen KDM5A demethylation assay (bio-H3K4me3 peptide); format: biochemical
T1 construct: Sf21 insect cells were infected with baculovirus to express full-length FLAG-KDM5A; made in house; host or cells: Sf21 insect cells (baculovirus)
Protocol: Histone demethylase assays were performed using previously described methods (Sayegh et al., 2013, J. Biol. Chem. 9408-9417), with the exception of all enzyme reactions containing 125 μM α-KG. Enzymes were used at the following approximate concentrations in validation experiments, chosen based on their activity in AlphaScreen assays: 19 nM FLAG-KDM5A, 15 nM FLAG-KDM5B, 6 nM FLAG-KDM5C, 29 nM His-FLAG-KDM6A, and 16 nM FLAG-KDM6B. 24 nM FLAG-KDM5A was used for Km determination experiments. Reactions were carried out for 1 hour, or were stopped by addition of 30 mM EDTA every 5 minutes for determining enzyme kinetics. Km values were calculated using the Michaelis-Menten non-linear regression analysis on GraphPad Prism 6.0 software. The concentration of DMSO in demethylation reactions was 0.05%. For reactions with catalase, catalase (Sigma C30) or an equal volume of dilution buffer was added to the peptide-containing buffer before addition of the demethylase. The final concentration of catalase in the reactions was 0.01 mg/ml.
The AlphaScreen general IgG (protein A) detection kit from PerkinElmer Life Sciences was used as described previously (Sayegh et al., 2013, J. Biol. Chem. 9408-9417). The luminescence emission was recorded at 570 nm using the AlphaScreen optic module on a Pherastar (BMG Labtech) or Envision (PerkinElmer Life Sciences) microplate reader.
8,861 compounds from the ChemBridge MW-Set, ChemBridge DIVERSet, MicroSource Gen-Plus, MicroSource Pure Natural Products, NIH Clinical Collection, and Enzo Epigenetics libraries were screened for inhibition of FLAG-KDM5A demethylase activity. Compounds were dissolved in DMSO and added at 20 μM to 384-well white plates (Corning 3574) containing 64 nM bio-H3K4me3 peptide in demethylase buffer prior to addition of 13 nM FLAG-KDM5A. Hits were selected at a threshold of three standard deviations (˜30% inhibition). A counter-screen was performed with the hits to eliminate any non-specific compounds. For this, 20 μM compounds were added to 64 nM bio-H3K4me2 peptide in demethylase buffer with no enzyme. Any hits that interfered with the positive signal detection were eliminated. Dose-response curves were performed on selected hits using 0.1-11 μM of compound. Further validation of top hits was performed using 5 μM of each compound or a dose-response curve using 0.05-50 μM of the compound.
Fresh compounds were ordered to confirm identity. IC50 curves were generated for YUKA1 and YUKA2 using 0.05-50 μM compound in 1 hour reactions. IC50 values were calculated by log transformation and non-linear regression log (inhibitor) versus response (three parameters) using Graphpad Prism 6.0 software. Percent activity of KDM5A was calculated for each data point by subtracting the background (average H3K4me3 signal) and dividing by the average signal for the DMSO controls. α-KG competition tests were performed using 150 nM H3K4me3 peptide and 50 μM Fe(II).
AlphaScreen technology (Perkin Elmer) was utilized to perform a screen for small molecule inhibitors of KDM5A. The assay was comprised of two steps, a demethylation reaction followed by detection of the product. A biotinylated H3K4me3 peptide was used as substrate in the demethylation reaction with KDM5A in the presence or absence of small molecule inhibitors. The presence of peptide product (H3K4me1/2) was detected using a product-specific antibody and beads. For this, acceptor beads coated in protein A bound to the antibody, which recognized the peptide product. Donor beads coated in streptavidin bound biotin on the peptide substrate. […]

[2] = system: HeLa cells; experiment: WST-1 cell proliferation assay, HeLa; format: cell-based, human; details: after 3 days
Protocol: WST-1 reagent from Roche Applied Sciences (11644807001) was used to measure cell number before drug addition and after 3 or 5 days of growth using previously described methods (Sayegh et al., 2013, J. Biol. Chem. 9408-9417). Cells were seeded in 96-well plates at the following number of cells per well: HeLa (2000), MCF7 (2000), ZR-75-1 (1000), MCF10A (1000), MDA-MB-231(5000). Assays were performed in technical quadruplicates and biological triplicates. DMSO was used at 0.1%. Relative absorbance was calculated by subtracting the average background (media only) signal, dividing by the average signal on day 0, and then dividing by the average day 5/day 0 ratio for the DMSO controls. Significance was calculated by unpaired, two-tailed student's t-test using GraphPad Prism 6.0 software.

[3] = system: HeLa cells; experiment: Colony formation assay, HeLa; format: cell-based, human
Protocol: Cells were seeded in 6-well plates at low density: HeLa, MCF7, BT474, and PC9 cells at 1000, 2000, 2500, and 2000 cells/well respectively. Media containing the prescribed drugs or 0.1% DMSO was replaced every 3 days. Trastuzumab was used at 5 μg/ml. Gefitinib was used at 2 μM. YUKA1 was used at 50 or 100 μM. Doxycycline was used at 1 μg/ml for 3 days. After 7-42 days depending on the rate of cell growth, cells were fixed in 4% para-formaldehyde in phosphate-buffered saline for 10 minutes rocking at room temperature. They were incubated in 0.05% crystal violet in double-distilled water for 30 minutes rocking at room temperature, washed with water, and dried 24 hours before photographing. ColonyArea, a plugin for ImageJ software, was used for quantification (Guzman et al., 2014, PloS One 9:e92444). Unpaired, two-tailed student's t-test was used to determine significance using GraphPad Prism 6.0 software.
HeLa (FIG. 11A) and MDA-MB231 cells (FIG. 11B) were treated with DMSO, 5 μM KDMS-C70 or 50 or 100 μM YUKA1 in colony-formation assays. The tables in FIGS. 11C and 11D depict the quantification of experimental data.

T1 sequence (P29375 whole entry): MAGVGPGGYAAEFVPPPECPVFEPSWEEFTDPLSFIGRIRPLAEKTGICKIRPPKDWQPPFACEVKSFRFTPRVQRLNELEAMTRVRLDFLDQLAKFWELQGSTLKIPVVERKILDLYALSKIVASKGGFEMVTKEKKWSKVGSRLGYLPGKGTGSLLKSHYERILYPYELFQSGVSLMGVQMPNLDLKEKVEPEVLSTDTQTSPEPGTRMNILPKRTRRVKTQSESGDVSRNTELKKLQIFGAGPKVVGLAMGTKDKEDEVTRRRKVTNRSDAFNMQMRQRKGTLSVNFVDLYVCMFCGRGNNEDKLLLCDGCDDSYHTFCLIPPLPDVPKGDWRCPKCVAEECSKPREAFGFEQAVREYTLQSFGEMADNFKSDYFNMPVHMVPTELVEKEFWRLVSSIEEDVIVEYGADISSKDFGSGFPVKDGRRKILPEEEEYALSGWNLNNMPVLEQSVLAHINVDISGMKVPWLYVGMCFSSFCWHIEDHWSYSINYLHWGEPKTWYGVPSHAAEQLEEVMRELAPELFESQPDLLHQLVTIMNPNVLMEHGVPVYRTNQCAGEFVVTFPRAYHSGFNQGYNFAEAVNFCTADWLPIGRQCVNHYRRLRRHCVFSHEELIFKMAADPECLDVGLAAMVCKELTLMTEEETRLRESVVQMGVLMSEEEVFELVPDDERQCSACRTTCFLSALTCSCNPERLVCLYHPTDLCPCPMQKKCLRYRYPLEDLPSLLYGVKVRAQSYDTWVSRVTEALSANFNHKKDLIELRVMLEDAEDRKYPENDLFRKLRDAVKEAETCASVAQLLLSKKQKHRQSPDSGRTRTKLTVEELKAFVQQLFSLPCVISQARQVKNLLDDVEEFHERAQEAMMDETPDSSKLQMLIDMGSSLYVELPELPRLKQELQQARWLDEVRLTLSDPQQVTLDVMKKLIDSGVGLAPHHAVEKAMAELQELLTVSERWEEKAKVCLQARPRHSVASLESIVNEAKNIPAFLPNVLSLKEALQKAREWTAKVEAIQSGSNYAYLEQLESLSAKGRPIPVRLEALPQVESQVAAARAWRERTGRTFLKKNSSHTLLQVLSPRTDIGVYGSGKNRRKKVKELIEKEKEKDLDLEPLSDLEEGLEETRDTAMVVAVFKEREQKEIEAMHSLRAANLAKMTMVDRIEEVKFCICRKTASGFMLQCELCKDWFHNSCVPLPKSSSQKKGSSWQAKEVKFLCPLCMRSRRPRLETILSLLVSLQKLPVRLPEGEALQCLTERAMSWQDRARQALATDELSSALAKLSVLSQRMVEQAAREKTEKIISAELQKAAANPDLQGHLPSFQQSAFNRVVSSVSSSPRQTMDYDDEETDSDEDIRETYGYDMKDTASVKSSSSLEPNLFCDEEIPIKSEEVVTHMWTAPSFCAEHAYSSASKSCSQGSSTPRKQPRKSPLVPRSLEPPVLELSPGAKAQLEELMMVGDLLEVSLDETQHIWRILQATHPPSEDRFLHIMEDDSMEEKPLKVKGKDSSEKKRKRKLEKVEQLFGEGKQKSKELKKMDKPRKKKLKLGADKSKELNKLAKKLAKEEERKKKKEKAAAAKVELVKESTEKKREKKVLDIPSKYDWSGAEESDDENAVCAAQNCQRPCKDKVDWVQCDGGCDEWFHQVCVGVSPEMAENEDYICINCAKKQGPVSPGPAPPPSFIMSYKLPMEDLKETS

## C=CCOc1c(CNn2cnnc2S)cccc1OC [YUKA1, 4-([2-(allyloxy)-3-methoxybenzyl]amino)-4H-1,2,4-triazole-3-thiol]
[1]
  mode of KDM5A inhibition with respect to Fe(II): uncompetitive with respect to Fe(II)
[1]; 5 μM Fe(II)
  KDM5A enzyme inhibition at low Fe(II): too weak to generate robust IC50 curves
[1]; 0.01 mg/ml catalase
  effect of catalase on inhibitory potency against KDM5A: did not affect the inhibitory potency
[1]; 0.05-50 μM compound, 1 hour reactions, read-out: average in vitro IC50 against KDM5A
  IC50: 2660 nM
[1]; 16-fold range of α-KG, 150 nM H3K4me3 peptide, 50 μM Fe(II)
  change of KDM5A IC50 with α-KG concentration: did not change significantly
[1]; inhibitors found by high throughput screening, read-out: KDM5A IC50
  IC50: 1320 nM
[2]
  cell proliferation relative to DMSO: less than half of DMSO-treated cells
[3]; 5 μM KDMS-C70 or 50 or 100 μM YUKA1
  growth in colony-formation assay: suppresses growth
[3]; two-week treatment
  number of colonies formed vs DMSO control: significantly reduced
